Results from paper PMC7006816, “Human β-Defensin 2 Mediated Immune Modulation as Treatment for Experimental Colitis” (Frontiers in Immunology, 2020).
Where no end group is shown, it is not given here.

What was measured:
[1] = test system: CD patients; conditions: clinical trial; cited from earlier work
From the text: Despite ongoing development of therapeutic approaches, new treatment strategies for the management of IBD are still urgently needed. Corticosteroids remain the standard therapeutic options for active CD and UC. However, their beneficial effects are associated with severe side effects such as osteoporosis, moon face, mood disturbances, glaucoma, and hypertension ([47]). In recent years, several new therapeutics targeting the molecular mechanisms of intestinal and systemic inflammation have been developed. Among these, anti-TNFα antibodies have been the most successful and most commonly used bio ...

[2] = test system: SCID mice with CD4+/CD25− T cell transfer colitis; assay: T cell transfer colitis model; type: in vivo, mouse
Protocol: This study was performed by the Department of Biomedical Science at the University of Catania according to directive 86/609 EEC and approved by Novozymes science ethics committee. 8 weeks old female BALB/c and C.B-17 female SCID mice were purchased from Harlan (Italy). Colitis was induced in severe combined immunodeficiency (SCID) mice by transplantation of CD4^+/CD25^− T cells from the BALB/c mice. Briefly, lymphomonocytes isolated from spleen or lymph nodes from BALB/c mice were subjected to negative selection of CD4^+ T cells. Afterwards, CD4^+/CD25^+ cells were positively isolated by binding to the beads from the CD4^+ T cell suspensions and the CD4^+/CD25^− were collected from supernatant. […] CD4^+/CD25^− cells were intraperitoneally injected to SCID mice at a concentration of 500,000 cells in a final volume of 0.2 ml RPMI 1640. Sham treated animals (n = 6) received 0.2 ml pure RPMI 1640. Diseased mice were randomized divided into 4 groups (n = 11) and treated once daily by s.c. application of PBS (vehicle), hBD2 (0.1 and 1 mg/kg, respectively) or 0.3 mg/kg Dexamethasone (Dexa., applied intraperitoneally). Treatments started 7 days post T cell transfer and continued daily for 86 days. Animals were weighed three times a week and monitored twice a week starting from day 42 for the clinical status, summarized as DAI. The DAI included body weight loss, stool consistency, and the presence of blood at the rectum. One animal in the vehicle and one in the Dexamethasone treated groups had to be sacrificed before the end of the study. At the end of the study, animals were sacrificed and the colon was removed and carefully cleaned for further analysis. First, the colon was weighed then a section from the middle was removed and fixed for pathologic survey. The rest of the colon (5 cm) was used to quantify the activity of myeloperoxidase in the tissue.
Myeloperoxidase activity was performed on 5 cm of colon previously frozen at −80°C. Colon was homogenized in 0.5% of HETAB dissolved in 10 mM of Phosphate-Citrate Buffer (pH 7.0) to enable the release of MPO enzyme from the neutrophil granules. Homogenated samples after three freeze-thaw cycles were spun at 3,000 × g at 4°C for 30 min. Pellets were resuspended in 0.5% HETAB in 10 mM Phosphate-Citrate Buffer and spun again at 3,000 × g at 4°C for 30 min. 500 ul of supernatant were delivered into a vial along with 500 ul of TMB in Phosphate-Citrate Buffer containing Perborate Sodium. Changes in absorbance at 620 and 450 nm were read by a spectrophotometer (IRIS). Peroxidase enzyme diluted in 0.5% HETAB in 10 mM Phosphate-Citrate Buffer and H2O was used as standard. Two-fold dilutions of standard were prepared at the highest concentration of 50 pg/ml. Reagents and samples were kept refrigerated. Substrate solution was prepared just before the assay. MPO activity expresses the amount of enzyme that is able to degrade […] of peroxide/min and it is expressed as U/g tissue weight.
Sections of the colon were taken from each animal and preserved in neutral buffered formaline for subsequent histological analysis. Sections were stained using haematoxylin and eosin for further scoring.

[3] = test system: human dendritic cells and keratinocytes; conditions: cited from earlier work
From the text: Herein we report that hBD2 can be used as a systemically administered anti-inflammatory biological. hBD2 is well-tolerated, both in vitro, and in vivo. […] After su ...

[4] = test system: murine BM-DC's; assay: Cytokine production by murine BM-DC's; type: cell-based, mouse
Protocol: (§1) BM-DC's were generated using granulocyte-macrophage colony-stimulating factor (GM-CSF) and RPMI-1640 medium (Merck) supplemented with 10% fetal calf serum (FBS; Life Technologies), 2 mM glutamine (Thermo Fisher), 100 U/ml penicillin/streptomycin (Gibco), 50 μM 2-mercaptoethanol (Roth), 1 mM sodium pyruvate (Biochrome), and 1x non-essential amino acids (Biochrome) as previously described ([28]). Shortly, 2 × 10^6 bone marrow cells flushed from the tibias and femurs of C57BL/6 mice were seeded in dishes containing 200 U/ml GM-CSF. After 3 days extra medium containing GM-CSF was added to the cells and on day 6 half of the medium was replaced by fresh […] containing GM-CSF. After 7 or 8 days slightly attached cells were harvested. Female C57BL/6JolaHsd mice were purchased from Janvier (St. Berthevin Cedex, France). Animal experiments were performed in strict accordance with the German regulations of the Society for Laboratory Animal Science (GV-SOLAS) and the European Health Law of the Federation of Laboratory Animal Science Associations (FELASA). The protocol was approved by the Regierungspräsidium Tübingen (Anzeige 09.01.2014).
2 × 10^5 murine BM-DC's or human Mo-DC's were seeded in 96-well round bottom plates. First they were pretreated with 100 ng/ml pertussis toxin (Sigma-Aldrich) or 5 μM of the CCR2 inhibitor RS 504393 (Tocris) and subsequently stimulated with 100 ng/ml LPS or 0.2 […] and 10 μg/ml or 100 μg/ml hBD2. 24 h later supernatants were collected and TNF-α [Biolegend (BM-DC's); R&D (Mo-DC's)] was analyzed according to the manufacturer's instructions. IL-10, IL-12, and IL-1β (LEGENDplex Biolegend) was as well-analyzed according to the manufacturer's instructions.

[5] = test system: murine BM-DC's; assay: Flow cytometry of BM-DCs (p-NF-κB, p-CREB, MHCII, CD86); type: cell-based, mouse; conditions: RS504393 prior to LPS + hBD2; n = 6
Protocol: as §1
2 × 10^5 murine BM-DC's were seeded in 96-well round bottom plates and treated as described above. Cells were removed from the plate using Accutase (Sigma-Aldrich) and stained for 20 min at room temperature with Zombie Aqua (Biolegend) to exclude dead cells and extracellular antibodies against CD11c-APC (N418) (Miltenyi), MHCII-FITC (M5/114.15.2) (Miltenyi) and CD86-BV421 (GL-1) (Biolegend). For p-CREB staining cells were fixed and permeabilized with Foxp3 Staining Buffer Set (eBioscience) and stained with primary antibody phosphor-CREB mAb (Ser133; clone 87G3) (Cell Signaling) for 30 min in the dark at room temperature followed by secondary goat anti-rabbit IgG-DyLight™649 (Jackson ImmunoResearch) for 15 min at 4°C. To detect intracellular p-NF-κB BM-DCs were fixed with 2% paraformaldehyde (VWR) in PBS, permeabilized with 90% freezing methanol (Applichem) and stained with the primary antibodies to phosphor-NF-κB p65 (93H1) (Cell Signaling) for 60 min in the dark at room temperature followed by goat anti-rabbit IgG-PE-Cy7 (Santa Cruz Biotechnology) for 15 min at 4°C. PBS with 0,5% bovine serum albumin (Biomol) was used for all incubations and washing steps. At least 50,000 cells were acquired using a Canto-II flow cytometer (BD […]) with DIVA software (BD Biosciences) and were further analyzed using FlowJo 10.5 software (Tree Star).

[6] = test system: mice with DSS colitis; conditions: rectally applied; cited from earlier work
[7] = Dexamethasone 0.3 mg/kg i.p. daily, n = 10

Secukinumab
Disease course in CD patients [1]: worsened the disease

C[C@@H]1C[C@H]2[C@@H]3CCC4=CC(=O)C=C[C@]4(C)[C@@]3(F)[C@@H](O)C[C@]2(C)[C@@]1(O)C(=O)CO [dexamethasone, Dexamethasone, reference compound]
Histological analysis of colon ([2]; Dexamethasone 0.3 mg/kg i.p. daily): Less signs of inflammation | Efficacy compared with hBD2 ([2]; Dexamethasone 0.3 mg/kg i.p. daily vs hBD2 s.c.): superior to hBD2 in the T cell transfer model | Colon weight [2, 7]: improved DAI, stool score and colon weight significantly | DAI [2, 7]: improved DAI, stool score and colon weight significantly | Stool score [2, 7]: improved DAI, stool score and colon weight significantly

hBD3: defensin named only as hBD3, cited for cytotoxicity in contrast to hBD2 (GIINTLQKYYCRVRGGRCAVLSCLPKEEQIGKCSTRGRKCCRRKK; ends and bridges not checked; cysteine pairing not given here; UniProt P81534 23-67, looked up)
Cytotoxic effects [3]: demonstrated cytotoxic effects

pertussis toxin [reference compound]
Effect of pre-treatment on hBD2 modulation of TNF-α, IL-1β, IL-10, IL-12p70 secretion ([4]; 100 ng/ml pertussis toxin before LPS and hBD2): prevented the observed immunomodulatory capacity of hBD2

Cc1ccc2c(c1)C1(CCN(CCc3nc(-c4ccccc4)oc3C)CC1)OC(=O)N2 [RS504393, RS 504393, reference compound]
Effect of pre-treatment on hBD2 modulation of cytokine secretion ([4]; 5 μM RS504393 before LPS and hBD2): prevented the anti-inflammatory effect of hBD2 | Effect of pre-treatment on hBD2-mediated change of CREB phosphorylation [5]: prevented the increase in CREB phosphorylation | Effect of pre-treatment on hBD2-mediated change of MHCII and CD86 expression [5]: prevented this lower expression | Effect of pre-treatment on hBD2-mediated change of NF-κB phosphorylation [5]: prevented the hBD2-mediated reductions in NF-κB activation

porcine β-defensin 2 [pBD2]
Mucosal injury and epithelial barrier in DSS colitis [6]: protective against mucosal injury and disruption of the epithelial barrier
